From ChEMBL document CHEMBL4270641, “ATP citrate lyase (ACLY) inhibitors: An anti-cancer strategy at the crossroads of glucose and lipid metabolism” (Eur J Med Chem, 2018)
pIC50, pKi: −log10 of the molar value.

Legend:
ATP-citrate synthase [1] = biological target: T1, ATP-citrate synthase (Rattus norvegicus, UniProt P16638); experiment: (§1) Inhibition of rat liver ACLY
T1 sequence (P16638 whole entry): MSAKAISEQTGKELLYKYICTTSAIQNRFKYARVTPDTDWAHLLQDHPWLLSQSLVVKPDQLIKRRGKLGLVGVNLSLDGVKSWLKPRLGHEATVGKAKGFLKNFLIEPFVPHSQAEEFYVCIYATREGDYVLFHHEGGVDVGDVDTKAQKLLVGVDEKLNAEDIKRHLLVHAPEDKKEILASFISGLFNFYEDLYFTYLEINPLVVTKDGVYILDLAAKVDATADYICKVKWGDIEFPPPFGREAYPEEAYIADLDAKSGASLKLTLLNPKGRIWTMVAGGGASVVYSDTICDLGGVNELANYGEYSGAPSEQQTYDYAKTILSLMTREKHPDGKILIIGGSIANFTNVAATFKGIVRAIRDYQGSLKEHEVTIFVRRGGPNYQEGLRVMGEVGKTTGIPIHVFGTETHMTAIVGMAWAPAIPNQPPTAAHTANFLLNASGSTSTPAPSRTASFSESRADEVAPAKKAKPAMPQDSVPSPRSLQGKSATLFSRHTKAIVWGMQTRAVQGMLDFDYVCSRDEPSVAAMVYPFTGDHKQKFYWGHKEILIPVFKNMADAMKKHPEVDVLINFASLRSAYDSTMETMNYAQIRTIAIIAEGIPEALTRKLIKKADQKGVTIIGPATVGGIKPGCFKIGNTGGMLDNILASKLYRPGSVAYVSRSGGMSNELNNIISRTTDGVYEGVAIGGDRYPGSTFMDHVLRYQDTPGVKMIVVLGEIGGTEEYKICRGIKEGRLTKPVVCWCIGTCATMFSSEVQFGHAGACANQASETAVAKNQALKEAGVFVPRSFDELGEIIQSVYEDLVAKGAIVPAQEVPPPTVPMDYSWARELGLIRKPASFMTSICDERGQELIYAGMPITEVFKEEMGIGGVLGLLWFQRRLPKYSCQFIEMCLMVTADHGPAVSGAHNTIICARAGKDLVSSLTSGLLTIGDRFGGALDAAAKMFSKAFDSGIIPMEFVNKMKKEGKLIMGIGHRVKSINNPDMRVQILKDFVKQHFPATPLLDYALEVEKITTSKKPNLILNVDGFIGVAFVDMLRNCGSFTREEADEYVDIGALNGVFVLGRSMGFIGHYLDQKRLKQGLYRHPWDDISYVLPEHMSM

ATP-citrate synthase [2] = biological target: T1, ATP-citrate synthase; experiment: Reversible inhibition of rat liver ACLY
Rattus norvegicus [3] = experiment: In vivo inhibition of ACLY in rat administered through diet relative to control; format: functional
A549 = experiment: Antiproliferative activity against human A549 cells; format: functional, cell-based
SK-OV-3 = experiment: Antiproliferative activity against human SKOV3 cells; format: functional, cell-based
[4] = biological target: T2, ATP-citrate synthase (Homo sapiens) (UniProt P53396); experiment: Inhibition of ACLY in human HepG2 cells assessed as reduction in cholesterol synthesis at 30 uM relative to control; format: cell-based
T2 sequence (whole entry): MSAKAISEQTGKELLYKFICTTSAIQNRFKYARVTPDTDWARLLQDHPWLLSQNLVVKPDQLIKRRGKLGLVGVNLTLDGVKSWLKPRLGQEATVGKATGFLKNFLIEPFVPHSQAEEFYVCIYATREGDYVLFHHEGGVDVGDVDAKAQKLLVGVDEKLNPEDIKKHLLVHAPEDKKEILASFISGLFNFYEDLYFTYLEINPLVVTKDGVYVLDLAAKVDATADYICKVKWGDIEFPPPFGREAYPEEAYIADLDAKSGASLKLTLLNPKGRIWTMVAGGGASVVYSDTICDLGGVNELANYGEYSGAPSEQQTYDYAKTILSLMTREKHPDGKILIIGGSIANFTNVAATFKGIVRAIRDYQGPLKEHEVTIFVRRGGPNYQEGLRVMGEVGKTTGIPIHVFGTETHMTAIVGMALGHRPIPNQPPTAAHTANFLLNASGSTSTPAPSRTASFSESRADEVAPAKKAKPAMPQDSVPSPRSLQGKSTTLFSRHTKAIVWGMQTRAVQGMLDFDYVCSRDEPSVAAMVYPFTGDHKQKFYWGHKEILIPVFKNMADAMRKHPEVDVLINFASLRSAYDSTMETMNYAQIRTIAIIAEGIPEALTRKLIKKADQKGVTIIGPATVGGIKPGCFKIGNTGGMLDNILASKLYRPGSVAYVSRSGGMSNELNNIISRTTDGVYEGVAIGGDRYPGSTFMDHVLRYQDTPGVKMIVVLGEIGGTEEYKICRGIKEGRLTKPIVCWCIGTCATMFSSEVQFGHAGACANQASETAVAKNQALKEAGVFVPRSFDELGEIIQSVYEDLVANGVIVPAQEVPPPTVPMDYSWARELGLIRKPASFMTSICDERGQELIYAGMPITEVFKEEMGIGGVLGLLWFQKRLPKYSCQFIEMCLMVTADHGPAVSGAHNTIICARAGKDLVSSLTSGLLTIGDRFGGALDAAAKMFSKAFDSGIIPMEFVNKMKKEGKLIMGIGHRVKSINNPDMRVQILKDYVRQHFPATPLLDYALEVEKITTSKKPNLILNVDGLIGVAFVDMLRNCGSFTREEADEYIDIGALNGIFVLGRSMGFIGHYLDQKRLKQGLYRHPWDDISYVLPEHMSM

[5] = biological target: T2, ATP-citrate synthase (Homo sapiens); experiment: Inhibition of ACLY in human HepG2 cells assessed as reduction in fatty acid synthesis at 30 uM relative to control; format: cell-based
PC-3 = experiment: Antiproliferative activity against human PC3 cells; format: functional, cell-based
ATP-citrate synthase [6] = biological target: T3, ATP-citrate synthase (Homo sapiens, UniProt P53396)
T3 sequence (P53396 whole entry): T2 sequence (whole entry)
Description: Competitive inhibition of human liver ACLY using varying levels of citrate as substrate

[7] = biological target: T4, ATP-citrate synthase (Rattus norvegicus) (UniProt P16638); experiment: as §1; details: concentration not given here
T4 sequence (whole entry): T1 sequence (P16638 whole entry)

ATP-citrate synthase [8] = biological target: T3, ATP-citrate synthase; experiment: Inhibition of ACLY (unknown origin)
Rattus norvegicus [9] = experiment: In vivo inhibition of ACLY in po dosed rat assessed as reduction in plasma triglyceride level after 7 days relative to control; format: functional
Rattus norvegicus [10] = experiment: In vivo inhibition of ACLY in po dosed rat assessed as reduction in plasma cholesterol level after 7 days relative to control; format: functional
Canis familiaris [11] = experiment: In vivo inhibition of ACLY in po dosed dog assessed as reduction in plasma triglyceride level after 15 days relative to control; format: functional, Canis lupus familiaris
Canis familiaris [12] = experiment: In vivo inhibition of ACLY in po dosed dog assessed as reduction in plasma cholesterol level after 15 days relative to control; format: functional, Canis lupus familiaris
LNCaP = experiment: Antiproliferative activity against human LNCAP cells; format: functional, cell-based

SMILES: CC1=CC(O)=C2C(=O)c3c(ccc(-c4ccc5c(c4O)C(=O)C4=C(O)C6OC6(C)C(OC(=O)CC(=O)O)C4(C)O5)c3O)OC2(C)C1=O (stereo not given)
- pIC50 (ATP-citrate synthase [1]): 5.21

SMILES: CS(=N)(=O)C[C@@](O)(CC(=O)O)C(=O)O (stereo not given in full)
- pKi (ATP-citrate synthase [2]): 3.60

SMILES: O=C1C[C@@](O)(C(=O)O)[C@@H](C(=O)O)O1
- pKi (ATP-citrate synthase [1]): 4.00 to 4.30

SMILES: N[C@@H](CCC(=O)O)C(=O)O [GLUTAMIC ACID]
- pKi (ATP-citrate synthase [1]): 3.52

SMILES: Clc1cccc(-c2ccc(Cl)c(Cl)c2Cl)c1Cl
- inhibition (INH) (Rattus norvegicus [3]): 69%

SMILES: O=C(O)C[C@@]1(O)C[C@@H](CCCCCCc2ccc(Cl)cc2Cl)OC1=O
- pIC50 (A549): 4.62
- pIC50 (SK-OV-3): 4.28
- inhibition [4]: 91%
- inhibition [5]: 82%
- pIC50 (PC-3): 4.59

SMILES: O=C(O)C[C@@](O)(C(=O)O)[C@H](O)C(=O)O
- pKi (ATP-citrate synthase [6]): 3.52

SMILES: CC(C)CC[C@H]1C(=O)O[C@H](C)[C@H](NC(=O)c2cccc(NC=O)c2O)C(=O)O[C@@H](C)[C@@H]1OC(=O)CC(C)C
- pKi (ATP-citrate synthase [1]): 5.40

SMILES: CCCCCC[C@H]1C(=O)O[C@H](C)[C@H](NC(=O)c2cccc(NC=O)c2O)C(=O)O[C@@H](C)[C@@H]1OC(=O)CCC
- pKi (ATP-citrate synthase [1]): 5.40

SMILES: CC12Oc3ccc(-c4ccc5c(c4O)C(=O)C4=C(O)C6OC6(C)C(OC(=O)CC(=O)O)C4(C)O5)c(O)c3C(=O)C1=C(O)C1OC1(C)C2O (stereo not given)
- pIC50 (ATP-citrate synthase [1]): 5.02

SMILES: CC(=O)C(C)=O
- inhibition [7]: 35%

SMILES: CCCCCC[C@H]1C(=O)O[C@H](C)[C@H](NC(=O)c2cccc(NC=O)c2O)C(=O)O[C@@H](C)[C@@H]1OC(=O)C(C)C
- pKi (ATP-citrate synthase [1]): 5.40

SMILES: O=C1C(c2ccc(O)c(O)c2)=c2c(c3c(n2CCc2ccc(O)cc2)=C(c2ccc(O)c(O)c2)C(=O)c2cc(O)c(O)cc2-3)-c2cc(O)c(O)cc21 [PURPURONE]
- pIC50 (ATP-citrate synthase [8]): 5.15

SMILES: O=C(O)C[C@@](O)(C[C@H](O)CCCCCCc1ccc(Cl)cc1Cl)C(=O)O
- inhibition (INH) (Rattus norvegicus [9]): <=80%
- inhibition (INH) (Rattus norvegicus [10]): <=46%
- inhibition (INH) (Canis familiaris [11]): <=38%
- inhibition (INH) (Canis familiaris [12]): <=23%

SMILES: CC(=O)OC(C)(C)/C=C/C(=O)[C@](C)(O)[C@H]1[C@H](O)C[C@@]2(C)[C@@H]3CC=C4[C@@H](C[C@H](O)C(=O)C4(C)C)[C@]3(C)C(=O)C[C@]12C
- pIC50 (PC-3): 7.00
- pIC50 (LNCaP): 7.00

SMILES: CCC(C)C(=O)O[C@H]1[C@H](C)OC(=O)[C@@H](NC(=O)c2cccc(NC=O)c2O)[C@@H](C)OC(=O)[C@@H]1CCC(C)C (stereo not given in full)
- pKi (ATP-citrate synthase [1]): 5.40

SMILES: O=CC(=O)c1ccccc1
- inhibition [7]: 85%
